Measurements as given in publication PMC11674800, “Second-Generation Antipsychotics Induce Metabolic Disruption in Adipose Tissue-Derived Mesenchymal Stem Cells Through an aPKC-Dependent Pathway” (Cells, 2024).
Numbered stars: 1 amine (or outer) side, 2 acyl side, 3 side chain; on linkers, the order of the positions; unused ones are H or OH. Bridge positions count the residues as written; N and C are the ends. Square brackets hold non-standard residues; d marks the D form. Peptide text beside a SMILES is read from it. X1 = CC(=O)NC(C(=O)OC(C(C)C)C(N[*:1])C(=O)[*:2])C(O)C(C)C; PhLac = O=C(O)[CH](O)Cc1ccccc1; NMeT = CN[CH](C(=O)O)[CH](C)O; NMeA = CN[CH](C)C(=O)O; NMeDha = C=C(NC)C(=O)O

Key:
ADSCs [1] = experiment: Acidic vesicle quantification (Lysotracker); assay type: cell-based, human; settings: for effect of co-treatment on acidic vesicle accumulation in clozapine-treated cells: clozapine 5 µM; for effect of co-treatment on acidic vesicle accumulation in olanzapine-treated cells / reduction of olanzapine-induced accumulation of acidic vesicles: olanzapine 5 μM; for reduction of olanzapine-induced accumulation of acidic vesicles: plus inhibitor 10 μM
Method: After treatment, the medium was removed, and the cells were stained with 50 nM Lysotracker Deep Red (Invitrogen, Waltham, MA, USA) and 5 μg/mL Hoechst 33342 (Sigma). Staining was conducted in the dark at 37 °C for 30 min. Fluorescence signals were captured using a FLoid Cell Imaging Station (Life Technology, Carlsbad, CA, USA). The ratio of Lysotracker red signal to blue nuclear signal was quantified using ImageJ software. For acidic vesicle rescue experiments, ADSCs were plated at a concentration of 10,000 cells per well in 48-well plates.

3T3L1 cells = experiment: PA accumulation in cells transfected with DOCK2-Pii; assay type: cell-based, mouse; settings: olanzapine 5 μM, 16 h, plus inhibitor
Method: Transfection was carried out using Lipofectamine 3000 (Thermo Fisher Scientific, Waltham, MA, USA), following the manufacturer’s instructions. The cells were incubated with the plasmid for 24 h to ensure successful transfection and plasmid expression and were used for experiments 48 h post-transfection.

TFEB = TFEB nuclear localization (confocal microscopy); assay type: cell-based, human; settings: olanzapine 5 μM plus inhibitor
Method: (§1) For INSRβ endocytosis experiments, the cells were stimulated with 50 ng/mL insulin for 15 min. For transferrin endocytosis experiments, the cells were incubated with 25 μg/mL Transferrin Texas Red for 5 min. After treatment, the cells were washed with PBS and fixed with 4% PFA for 10 min at room temperature, followed by an additional PBS wash. The cells were then permeabilized by incubating them with cold HEPES-Triton X-100 buffer for 5 min at 4 °C. After permeabilization, the cells were incubated with primary antibodies for 30 min, followed by incubation with Alexa Fluor 488- or 546-conjugated secondary antibodies (Invitrogen, Waltham, MA, USA) and phalloidin, labeled with either Alexa Fluor 546 or 633 (Invitrogen Waltham, MA, USA) for 30 min. After incubation, coverslips were mounted on glass slides using a mounting medium. Images were acquired using a confocal microscope (Leica TCS SP8, Wetzlar, Germany) and analyzed using ImageJ (v 1.52a) software in order to quantify and analyze the fluorescence signals.

PKCζ = experiment: PKC activation (Western blot, P-PKCζ T560 immunofluorescence); assay type: cell-based, human; settings: 16 h
Method: (§2) After treatments, whole-cell lysates were prepared using RIPA lysis buffer supplemented with protease inhibitors (AEBSF, aprotinin, bestatin, E-64, EDTA, leupeptin, Sigma-Aldrich, Saint Louis, MO, USA) and orthovanadate (Sigma-Aldrich, Saint Louis, MO, USA). The proteins in the lysates were collected and quantified using the Pierce BCA protein assay kit (Thermo Fisher Scientific, Waltham, MA, USA). Subsequently, the proteins were denatured by heating at 95 °C for 5 min in the presence of 2% Sodium Dodecyl Sulfate (SDS, Sigma-Aldrich, Saint Louis, MO, USA), 150 mM dithiothreitol (DTT, Sigma-Aldrich, Saint Louis, MO, USA), and 0.01% bromophenol blue (Sigma-Aldrich, Saint Louis, MO, USA). The samples were then analyzed using SDS-PAGE (SDS-Polyacrylamide Gel Electrophoresis) and Western blotting (WB).
as §1

Gas receptors = system: Gas receptors; parameters: method as in PMID 33152337; settings: acts as a suramin analog; cited from earlier work
LC3B = experiment: Autophagy induction (LC3B Western blot, LAMP1/LC3B colocalization); assay type: cell-based, human; settings: 16 h treatment
Method: as §2, §1

ADSCs [2] = settings: 7 days; 1 to 50 μM
ADSCs [3] = experiment: Vacuolization assay; assay type: cell-based, human; settings: 5 μM, 4 h
Method: After 4 h, pictures were acquired using a phase contrast microscope (DMi1, Leica, Wetzlar, Germany).

ADSCs [4] = experiment: Phospholipidosis assay (LipidTox Green); settings: 5 μM, 16 h
Method: The cells were stained with 1X LipidTox Green (Thermo Fisher Scientific, Waltham, MA, USA) for 16 h to visualize lipid content. […] The cells were then washed with PBS and fixed with 4% paraformaldehyde for 15 min in the dark.

## Cn1cnc(N)c2ncnc1-2 [3-MA, 3-methyladenine]
ADSCs [1]; 16 h, plus inhibitor
  effect of co-treatment on acidic vesicle accumulation in clozapine-treated cells: significantly reduced
  effect of co-treatment on acidic vesicle accumulation in olanzapine-treated cells: not seen

## CC1CCc2c(cc(Br)c(F)c2Br)N1C=O (centres unmarked) [CE3F4]
3T3L1 cells
  effect of co-treatment on PA levels in olanzapine-treated cells: markedly reduced
ADSCs [1]; 16 h
  reduction of olanzapine-induced accumulation of acidic vesicles: at least 50%

## C[C@@H]1C[C@@H]([C@H](O)CC2CC(=O)NC(=O)C2)C(=O)[C@@H](C)C1 [CHX, cycloheximide]
ADSCs [1]; SGAs 5 µM, 16 h, plus inhibitor
  effect of co-treatment on acidic vesicle accumulation (Lysotracker) in both olanzapine- and clozapine-treated cells: significant reduction

## O=C(NCCN1CCC(n2c(=O)[nH]c3ccccc32)CC1)c1cc2cc(F)ccc2[nH]1 [FIPI]
3T3L1 cells
  effect of co-treatment on PA levels in olanzapine-treated cells: significantly reduced
ADSCs [1]; 16 h, plus inhibitor
  effect of co-treatment on acidic vesicle accumulation in olanzapine-treated cells: significantly reduced

## CN(C)CCCn1cc(C2=C(c3c[nH]c4ccccc34)C(=O)NC2=O)c2ccccc21 [Go6850]
ADSCs [1]; 16 h, plus inhibitor
  effect of co-treatment on acidic vesicle accumulation in clozapine-treated cells: only partially reduced

## CN1CCN(C(=O)C2C(C(=O)O)[C@H]3CC[C@@H]2O3)CC1 (some centres unmarked) [LB100]
ADSCs [1]; 16 h, plus inhibitor
  effect of co-treatment on acidic vesicle accumulation in olanzapine-treated cells: significant reduction
TFEB
  effect of co-treatment on TFEB nuclear localization induced by olanzapine: complete abrogation

## Cc1nc2sccn2c(=O)c1CCN1CCC(=C(c2ccccc2)c2ccc(F)cc2)CC1 [R59022]
3T3L1 cells
  effect of co-treatment on PA levels in olanzapine-treated cells: did not affect
ADSCs [1]; 16 h, plus inhibitor
  effect of co-treatment on acidic vesicle accumulation in olanzapine-treated cells: did not affect

## Nc1ncnc2c1ncn2C1CCCO1 (centres unmarked) [SQ22]
ADSCs [1]; 16 h
  reduction of olanzapine-induced accumulation of acidic vesicles: at least 50%

## C=C1C(=O)NC(C)C(=O)N(C)C(C)C(=O)NC(C(OC(=O)C(NC(C)=O)C(O)C(C)C)C(C)C)C(=O)N(C)C(C(C)OC)C(=O)OC(C)C(NC(C)=O)C(=O)OC(Cc2ccccc2)C(=O)N1C (centres unmarked) [YM254890] (Ac-T[PhLac][NMeDha]A[NMeA][X1][NMeT](Me); ester 1-C; configuration not given here)
3T3L1 cells
  effect of co-treatment on PA levels in olanzapine-treated cells: markedly reduced
ADSCs [1]; 16 h, plus inhibitor
  effect of co-treatment on acidic vesicle accumulation in olanzapine-treated cells: strongest effect
ADSCs [1]; 16 h
  reduction of olanzapine-induced accumulation of acidic vesicles: at least 50%
PKCζ; olanzapine 5 μM, plus inhibitor
  PKCζ phosphorylation in olanzapine-treated cells, co-treatment: diminished
Gas receptors
  concentrations blocking Gas receptors: below 10 μM

## CN1CCN(C2=Nc3cc(Cl)ccc3Nc3ccccc32)CC1 [clozapine]
LC3B
  colocalization of LAMP1 with LC3B: increased colocalization
  conversion of LC3B-I to LC3B-II: significantly increased
ADSCs [2]
  concentrations showing significant toxicity: above 25 μM
ADSCs [3]
  vacuolization induction: absent
ADSCs [1]; 0.5-10 µM, 24 h, 72 h, 7 days
  acidic compartment accumulation (Lysotracker staining): progressive time- and dose-dependent increase
ADSCs [1]; ADSCs
  concentrations at which acidic compartment accumulation was observed: below 1 µM
PKCζ; 5 μM, Western blot
  canonical PKCs (cPKCs) and atypical PKCζ activation state: activation

## CC(C)(C)c1ccc(C(=O)CCCN2CCC(OC(c3ccccc3)c3ccccc3)CC2)cc1 [ebastine]
ADSCs [3]
  vacuolization induction: prominently observed

## CNCCC(Oc1ccc(C(F)(F)F)cc1)c1ccccc1 (centres unmarked) [fluoxetine]
ADSCs [4]
  phospholipidosis induction: prominently observed
ADSCs [3]
  vacuolization induction: prominently observed

## Cc1ccc(C(=O)Nc2ccc(S(=O)(=O)O)c3cc(S(=O)(=O)O)cc(S(=O)(=O)O)c23)cc1NC(=O)c1cccc(NC(=O)Nc2cccc(C(=O)Nc3cc(C(=O)Nc4ccc(S(=O)(=O)O)c5cc(S(=O)(=O)O)cc(S(=O)(=O)O)c45)ccc3C)c2)c1 [suramin]
ADSCs [1]; 16 h
  reduction of olanzapine-induced accumulation of acidic vesicles: at least 50%
